Measurements published in patent publication US10709723B2, “Pharmaceutical anti-infective composition for inhalation” (GALEPHAR PHARMACEUTICAL RESEARCH, INC., priority 2006, dated 2020).
Converted amounts (≈) assume the structure as drawn. Where two headings read alike, the source gives them in different places.

What was measured:
[1] = system: 12 day biofilm of Pseudomonas aeruginosa; test: Bacterial count (CFU/ml) of 12-day biofilm after 24 hours with the products; type: cell-based; conditions: tobramycin 4 μg/ml alone; clarithromycin 100, 200 and 500 μg/ml alone; all combinations
Source text: Biofilms of Pseudomonas aeruginosa—strain PY O1 were formed according to the methods described by Ceri et al, the calgary biofilm device: new technology for rapid determination of antibiotic susceptibilities of bacterial biofilms, Journal of clinical microbiology, pp. 1771-1776, 1999 and Abdi-Ali et al, bactericidal activity of various antibiotics against biofilm-producing Pseudomonas aeruginosa, International Journal of Antimicrobial Agents 27, 196-200, 2006.
PY O1: is a cystic Fibrosis clinical mucoid strain of Pseudomonas aeruginosa received from the Erasme Hospital, Brussels.
After having shown that the number of Pseudomonas aeruginosa within the biofilms was stable after 12 days, the products listed in Table 1 were added to the media for the duration of 24 hours. Thereafter the biofilm was rinsed three times with a 0.01M phosphate buffer adjusted at pH 7.5 in order to remove all cells not bound to the biofilm. The microplate was then placed on ultrasonic bath at 35° C. for 5 minutes to allow the bacteria present in the biofilm to separate from such biofilm. A bacterial count was then performed (number of coloning forming unit CFU/ml). Each experience was done twice and the CFU counting was also repeated twice/experience.

[2] = system: planktonic Pseudomonas aeruginosa; test: MIC on planktonic bacteria (NCCLS dilution standard); type: cell-based
Experimental: The determination of the minimal inhibitory concentration (MIC) is performed according to the standard of NCCLS (NCCLS, Methods for dilution Antimicrobial Susceptibility Tests for bacteria that grow aerobically; approved standards, sixth edition, M7-A6, vol. 23 no. 2, January 2003.

[3] = In vitro lung deposition, Multistage Liquid Impinger (MLI); type: physicochemical; conditions: for lung concentration obtained per capsule: composition of example 6, epithelial liquid in the lung estimated at about 100 ml
Source text: The amount of macrolide agent inhaled shall be high enough to affect, in some way, the biofilm. It has to be noted that as the effect of macrolide derivatives on the biofilm is mediated through a non-antibacterial mechanism. […] Nevertheless, it is a another object of the present invention to provide a composition containing high concentrations (or amounts) of each of the aminoglycoside derivative and of the macrolide derivative i.e. at least more than 10%, preferably more than 15%, and more preferably more than 20% of the dry powder composition. It is indeed particularly interesting to achieve high lung doses of those therapeutic agents with the minimum amounts of inhalations because it makes the administration easier and more importantly increase the patient's compliance. It also decreases the nominal dose of each active ingredient and thus the adverse effects linked to these actives. In the present invention, the dry powder inhaler also provides a high Fine Particle Dose (FPD) and Fine Particle […] (FPF) when tested in vitro on a Multistage Liquid Impinger (MLI, Eur. Pharm, 5th Edition, chapter 2.9.18). The FPD and FPF are the parameters that predict in vivo lung deposition.
The in vitro lung deposition test was performed using equipment and conditions as described in the European Pharmacopoeia (5th edition, chapter 2.9.18—apparatus C). This equipment consists of a Multistage Liquid Impinger (MLI) and was operated with an air flow of 100 L/min during a period of time of 2.4 seconds to simulate inhalation capabilities of patients. The quantification of the deposition of each drug on each stage of the MLI was performed by HPLC equipped with a a Corona detector.

[4] = composition of example 6, 10 mg/capsule, MLI 100 L/min, Mean (n = 3)
[5] = composition of example 6, 10 mg/capsule, MLI 100 L/min, run MLI1
[6] = composition of example 6, 10 mg/capsule, MLI 100 L/min, run MLI2
[7] = composition of example 6, 10 mg/capsule, MLI 100 L/min, run MLI3

Row | MIC [2] | FPD [3, 4] [mg] | Filter deposition [3, 4] [mg] | FPD [3, 5] [mg] | FPD [3, 6] [mg] | FPD [3, 7] [mg] | Stage 2 deposition [3, 7] [mg] | lung concentration obtained per capsule [3] [µg/mL] | MIC ([2]; read-out: MIC) [µg/mL] | Structure (SMILES) | Decrease of the number of CFU/ml of the 12-day biofilm versus the positive control [1]
1 | not sensitive | 3.63 | 0.550 | 3.14 | 3.76 | 3.98 | 0.680 | 36.3 | – | CC[C@H]1OC(=O)[C@H](C)[C@@H](O[C@H]2C[C@@](C)(OC)[C@@H](O)[C@H](C)O2)[C@H](C)[C@@H](O[C@@H]2O[C@H](C)C[C@H](N(C)C)[C@H]2O)[C@](C)(OC)C[C@@H](C)C(=O)[C@H](C)[C@@H](O)[C@]1(C)O [Clarithromycin] | neither tobramycin 4 μg/ml nor clarithromycin at 100, 200 and 500 μg/ml alone are able to decrease the number of CFU/ml
2 | – | 4.26 | 0.760 | 3.60 | 4.45 | 4.72 | – | 42.6 | 3.9 (≈ 8.34 µM) | NC[C@H]1O[C@H](O[C@H]2[C@H](O)[C@@H](O[C@H]3O[C@H](CO)[C@@H](O)[C@H](N)[C@H]3O)[C@H](N)C[C@@H]2N)[C@H](N)C[C@@H]1O [Tobramycin] | neither tobramycin 4 μg/ml nor clarithromycin at 100, 200 and 500 μg/ml alone are able to decrease the number of CFU/ml
